{"source": "patent US7807882B2", "about": "“Herbicide-resistant sunflower plants, polynucleotides encoding herbicide-resistant acetohydroxyacid synthase large subunit proteins, and methods of use” (priority 2004, dated 2010)", "assay_in_all_cases": "Field trial, sulfonylurea tolerance (herbicide injury ratings), Balcarce", "assay_type_in_all_cases": "in vivo, Helianthus annuus", "key": {"[1]": {"test_system": "HA89 (wild-type) sunflower line", "settings": "No injury = 0", "from_the_text": "(§1) To evaluate the tolerance of MUT28 sunflower plants to sulfonylurea herbicides, HA89 (wild-type), MUT28, IMISUN-1, and SURES-1 sunflower lines were planted outdoors in Balcarce, Argentina during the growing season in an RCBD field trial with two replications to evaluate the tolerance of MUT28 plants to the sulfonylurea herbicide thifensulfuron (TFS) at 1× and 2× rates. The 1× rates for TFS is 4.4 g a.i./ha."}, "IMISUN-1 sunflower line": {"test_system": "IMISUN-1 sunflower line", "settings": "line IMISUN-1, No injury = 0", "from_the_text": "as §1"}, "MUT28 sunflower line": {"test_system": "MUT28 sunflower line", "settings": "No injury = 0", "from_the_text": "as §1"}, "SURES-1 sunflower line": {"test_system": "SURES-1 sunflower line", "settings": "line SURES-1, No injury = 0", "from_the_text": "as §1"}}, "data": [{"smiles": "COc1nc(C)nc(NC(=O)NS(=O)(=O)c2ccsc2C(=O)O)n1", "note": "[thifensulfuron]", "values": [{"measurement": "Herbicide Injury Ratings", "setting": "[1]; rate 1× (4.4 g a.i./ha)", "result": 75}, {"measurement": "Herbicide Injury Ratings", "setting": "[1]; rate 2× (1× is 4.4 g a.i./ha)", "result": 75}, {"measurement": "Herbicide Injury Ratings", "setting": "IMISUN-1 sunflower line; rate 1× (4.4 g a.i./ha)", "result": 20}, {"measurement": "Herbicide Injury Ratings", "setting": "IMISUN-1 sunflower line; rate 2× (1× is 4.4 g a.i./ha)", "result": 75}, {"measurement": "Herbicide Injury Ratings", "setting": "MUT28 sunflower line; rate 1× (4.4 g a.i./ha)", "result": 30}, {"measurement": "Herbicide Injury Ratings", "setting": "MUT28 sunflower line; rate 2× (1× is 4.4 g a.i./ha)", "result": 42}, {"measurement": "Herbicide Injury Ratings", "setting": "SURES-1 sunflower line; rate 1× (4.4 g a.i./ha)", "result": 5}, {"measurement": "Herbicide Injury Ratings", "setting": "SURES-1 sunflower line; rate 2× (1× is 4.4 g a.i./ha)", "result": 3}]}]}
